15 compounds from patent US20250214991A1 (Oncopia Therapeutics, Inc. d/b/a/ SK Life Science Labs, priority 2022, published 2025) can be followed below.

Bounds are passed on as bounds.

One test has as its target IKZF2 (Homo sapiens (Human), UniProt Q96SW2+Q9UKS7). Description: In vitro IKZF2 HiBit Assay (HEK293T Flp-in-HiBiT cells). As to conditions: HEK293T Flp-in-HiBiT cells, 6 hrs incubation; for DC50: read-out: IKZF2 HiBit DC50; for Dmax: HEK-293T, read-out: IKZF2 HiBit Dmax (%). Type of test: cell-based. On the procedure:
In Vitro IKZF2 HiBit Assay
The HiBiT protein tagging system was applied to modified HEK293T Flp-in-HiBiT cells (polyclone) via a CRISPR/Cas9-mediated insertion of the HiBiT peptide tag (Promega™) to the N-terminus of the IKZF2 gene locus (Neon™ transfection system). Test and reference compounds are diluted from 1 mM at 3 folds for 11 doses. 25 nL of diluted compound is transfered to assay plates (Corning3570) using ECHO550, the final DMSO concentration @ 0.1%. The cells are seeded in 3000/25 μL/well to compound plates. It is then incubated for 6 hrs in TC incubator. The amount of Nano-Glo® HiBiT lytic reagent needed to perform the desired experiments is calculated. The Nano-Glo® HiBiT lytic reagent is brought to room temperature. The LgBiT protein is diluted to 1:100 and the Nano-Glo® HiBiT lytic substrate is diluted to 1:50 into an appropriate volume of room temperature Nano-Glo® HiBiT lytic buffer. 15 μL of the detection reagent (or without LgBiT) is dispensed to corresponding well according to the layout. The plate is then shaked for 10 mins at room temperature. After briefly centrifuge, the plate is read on Envision. At the indicated timepoints, the Nano-Glo® HiBiT lytic detection system (Promega™) was utilized for detecting bioluminescence of the HiBiT tag in treated cells: abundance of the tag is proportionate to the level of luminescence. Following normalization to DMSO, dose-response curves were plotted (GraphPad Prism) to determine the concentration points at which 50% of HiBiT-Helios degradation was achieved by each compound. The extent of degradation (range of luminescence) from the highest to lowest concentration points was calculated to determine the Dmax.
(§1) DC50, A: <1 nM; B: 1-10 nM; C: 10-100 nM; D: 100-1000 nM; E: 1000-10000 nM; F: >10,000 nM. Dmax, A: >80%; B: 60-80%; C: 40-60%; D: 20-40%; E: <20%.
On the technique in general: HiBiT is a short tag that completes a luciferase, so light tracks the accessible tagged protein.

For the next test, the target named is IKZF1 (Homo sapiens (Human), UniProt Q13422+Q96SW2). Briefly: In vitro IKZF1 HiBit Assay (HEK293T Flp-in-HiBiT-IKZF1 stable cell line). The class given is cell-based. As to conditions: HEK293T Flp-in-HiBiT-IKZF1 stable cell line, 6 hrs incubation; for DC50: read-out: IKZF1 HiBit DC50; for Dmax: HEK-293T, read-out: IKZF1 HiBit Dmax (%). How it is done: In Vitro IKZF1 HiBit Assay
The HiBiT protein tagging system was applied to modified Cells: modified HEK293T Flp-in-HiBiT-IKZF1 stable cell line (polyclone) via a CRISPR/Cas9-mediated insertion of the HiBiT peptide tag (Promega™) to the N-terminus of the […] gene locus (Neon™ transfection system).
25 nL of diluted compound is transferred to assay plates (Corning3571) using ECHO550, the final DMSO concentration @ 0.1%. The cells are seeded in 3000/25 μL/well to compound plates. The plates are incubated for 6 hrs in TC incubator. The amount of Nano-Glo® HiBiT lytic reagent needed to perform the desired experiments is calculated. The Nano-Glo® HiBiT lytic reagent is brought to room temperature. The LgBiT protein is diluted to 1:100 and the Nano-Glo® HiBiT lytic substrate is brought to 1:50 into an appropriate volume of room temperature Nano-Glo® HiBiT lytic buffer. 15 μL of the detection reagent (or without LgBiT) is dispensed to corresponding well according to the layout. The plate is shaked for 10 mins at room temperature. After briefly centrifuge, the plateis read on Envision. At the indicated timepoints, the Nano-Glo® HiBiT lytic detection system (Promega™) was utilized for detecting bioluminescence of the HiBiT tag in treated cells: abundance of the tag is proportionate to the level of luminescence. Following normalization to DMSO, dose-response curves were plotted (GraphPad Prism) to determine the concentration points at which 50% of HiBiT-Ikaros degradation was achieved by each compound. The extent of degradation (range of luminescence) from the highest to lowest concentration points was calculated to determine the Dmax.
as §1

IKZF1, sequence (Q13422 whole entry): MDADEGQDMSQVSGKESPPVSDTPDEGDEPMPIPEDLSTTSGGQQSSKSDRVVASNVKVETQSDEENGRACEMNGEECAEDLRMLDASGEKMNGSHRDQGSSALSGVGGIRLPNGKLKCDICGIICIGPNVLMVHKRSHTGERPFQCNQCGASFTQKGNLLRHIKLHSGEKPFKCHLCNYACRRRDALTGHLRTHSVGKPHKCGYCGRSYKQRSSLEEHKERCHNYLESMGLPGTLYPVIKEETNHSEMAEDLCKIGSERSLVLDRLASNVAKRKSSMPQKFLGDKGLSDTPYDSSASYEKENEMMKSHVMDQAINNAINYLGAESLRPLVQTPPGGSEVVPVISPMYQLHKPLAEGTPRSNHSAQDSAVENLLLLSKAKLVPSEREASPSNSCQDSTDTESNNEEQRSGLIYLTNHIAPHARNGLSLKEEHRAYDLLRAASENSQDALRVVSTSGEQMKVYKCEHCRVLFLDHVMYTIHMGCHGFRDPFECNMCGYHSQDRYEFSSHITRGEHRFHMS
IKZF1, sequence (Q96SW2 whole entry): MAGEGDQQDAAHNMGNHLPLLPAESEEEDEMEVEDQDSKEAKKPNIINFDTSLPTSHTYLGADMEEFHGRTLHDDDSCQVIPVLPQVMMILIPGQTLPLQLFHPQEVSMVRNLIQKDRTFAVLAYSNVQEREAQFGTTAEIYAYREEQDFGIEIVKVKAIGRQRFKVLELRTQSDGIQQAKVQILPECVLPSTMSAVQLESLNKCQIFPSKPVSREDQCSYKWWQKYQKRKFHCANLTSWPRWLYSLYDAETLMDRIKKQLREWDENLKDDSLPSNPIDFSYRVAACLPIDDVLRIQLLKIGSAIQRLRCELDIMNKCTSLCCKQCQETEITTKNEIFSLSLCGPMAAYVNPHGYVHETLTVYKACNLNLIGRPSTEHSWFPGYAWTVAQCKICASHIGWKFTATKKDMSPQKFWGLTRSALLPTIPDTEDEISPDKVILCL
IKZF1, sequence (Q16531 2-1140 partner): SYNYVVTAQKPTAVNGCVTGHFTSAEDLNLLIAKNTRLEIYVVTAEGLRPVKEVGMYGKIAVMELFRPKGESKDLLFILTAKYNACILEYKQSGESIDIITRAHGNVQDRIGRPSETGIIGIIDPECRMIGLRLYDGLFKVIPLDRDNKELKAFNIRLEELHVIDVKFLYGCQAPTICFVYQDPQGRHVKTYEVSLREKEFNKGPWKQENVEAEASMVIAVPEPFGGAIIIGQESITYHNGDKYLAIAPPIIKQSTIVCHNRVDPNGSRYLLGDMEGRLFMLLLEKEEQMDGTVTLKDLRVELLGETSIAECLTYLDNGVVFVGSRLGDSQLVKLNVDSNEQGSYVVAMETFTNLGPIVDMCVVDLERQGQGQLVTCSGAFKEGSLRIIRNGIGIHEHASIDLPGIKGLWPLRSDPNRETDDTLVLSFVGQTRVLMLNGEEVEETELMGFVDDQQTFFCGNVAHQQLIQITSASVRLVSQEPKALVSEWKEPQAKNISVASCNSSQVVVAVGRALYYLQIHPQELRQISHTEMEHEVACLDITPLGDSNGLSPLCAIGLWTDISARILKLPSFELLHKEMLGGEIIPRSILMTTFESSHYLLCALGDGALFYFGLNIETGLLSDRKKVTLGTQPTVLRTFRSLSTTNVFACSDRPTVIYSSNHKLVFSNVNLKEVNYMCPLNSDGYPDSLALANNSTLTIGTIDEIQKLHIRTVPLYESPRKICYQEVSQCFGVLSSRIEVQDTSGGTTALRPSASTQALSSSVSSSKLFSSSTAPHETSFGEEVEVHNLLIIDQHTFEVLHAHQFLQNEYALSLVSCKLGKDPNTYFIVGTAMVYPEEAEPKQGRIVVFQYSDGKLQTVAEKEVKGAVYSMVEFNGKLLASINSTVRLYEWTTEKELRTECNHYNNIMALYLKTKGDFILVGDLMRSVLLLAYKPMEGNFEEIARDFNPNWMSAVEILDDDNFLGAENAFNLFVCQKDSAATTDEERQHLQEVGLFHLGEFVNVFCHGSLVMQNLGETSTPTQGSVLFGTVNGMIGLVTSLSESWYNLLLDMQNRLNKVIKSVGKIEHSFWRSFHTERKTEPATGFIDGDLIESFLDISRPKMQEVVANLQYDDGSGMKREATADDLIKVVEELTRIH
IKZF2, sequence (Q9UKS7 whole entry): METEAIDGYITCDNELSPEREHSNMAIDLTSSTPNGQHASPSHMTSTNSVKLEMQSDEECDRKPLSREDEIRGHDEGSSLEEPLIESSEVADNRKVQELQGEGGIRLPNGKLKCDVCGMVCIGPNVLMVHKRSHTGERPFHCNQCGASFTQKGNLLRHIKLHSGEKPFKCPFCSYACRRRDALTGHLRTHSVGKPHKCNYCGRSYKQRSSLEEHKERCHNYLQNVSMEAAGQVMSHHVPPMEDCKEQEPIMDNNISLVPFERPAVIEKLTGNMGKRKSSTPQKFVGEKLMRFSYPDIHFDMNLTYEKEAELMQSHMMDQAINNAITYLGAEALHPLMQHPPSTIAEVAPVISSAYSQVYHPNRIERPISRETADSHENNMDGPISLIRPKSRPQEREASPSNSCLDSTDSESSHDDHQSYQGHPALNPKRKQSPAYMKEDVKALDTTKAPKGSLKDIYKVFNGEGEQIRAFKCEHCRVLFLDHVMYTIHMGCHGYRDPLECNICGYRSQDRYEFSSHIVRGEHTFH
IKZF2, sequence (Q96SW2 whole entry): as the sequence (Q96SW2 whole entry) above
IKZF2, sequence (Q16531 2-1140 partner): as the sequence (Q16531 2-1140 partner) above

In the case of `O=C1CCC(N2Cc3cc(-c4cc(CN5CCCC5CF)c5ccn(C6COC6)c5n4)ccc3C2=O)C(=O)N1` (stereo not drawn) [Example 257, 3-(5-(4-((2-(fluoromethyl)pyrrolidin-1-yl)methyl)-1-(oxetan-3-yl)-1H-pyrrolo[2,3-b]pyridin-6-yl)-1-oxoisoindolin-2-yl) piperidine-2,6-dione], the DC50 on IKZF2 and on IKZF1 was 1 to 10 nM throughout. In addition, the results for the Dmax at IKZF2 and at IKZF1 were over 80% and 20 to 40%, respectively.

For `O=C1CCC(N2Cc3cc(-c4cc(CN5CCCC5)c5nccc(C6CCC6)c5n4)ccc3C2=O)C(=O)N1` (stereo not drawn) [Example 247, 3-(5-(8-cyclobutyl-4-(pyrrolidin-1-ylmethyl)-1,5-naphthyridin-2-yl)-1-oxoisoindolin-2-yl) piperidine-2,6-dione], at IKZF2, the DC50 was 10 to 100 nM and the Dmax was in the range of 40 to 60%. Besides, on IKZF1, the DC50 is over 10000 nM and the Dmax is under 20%.

Turning to `Cc1cc(-c2ccc3c(c2)CN(C2CCC(=O)NC2=O)C3=O)nc2oc(CN3CCCC3)nc12` (stereo not drawn) [Example 198, 3-(5-(7-methyl-2-(pyrrolidin-1-ylmethyl)oxazolo [5,4-b]pyridin-5-yl)-1-oxoisoindolin-2-yl) piperidine-2,6-dione], on IKZF2, the DC50 fell in the range of 10 to 100 nM and the Dmax was 40 to 60%. Moreover, on IKZF1, the DC50 was over 10000 nM and the Dmax is under 20%.

With `O=C1CCC(N2Cc3cc(-c4cc(CN5CCCC5C(F)(F)F)c5ccn(C6COC6)c5n4)ccc3C2=O)C(=O)N1` (stereo not drawn) [Example 253, 3-(5-(1-(oxetan-3-yl)-4-((2-(trifluoromethyl)pyrrolidin-1-yl)methyl)-1H-pyrrolo[2,3-b]pyridin-6-yl)-1-oxoisoindolin-2-yl) piperidine-2,6-dione], the DC50 at IKZF2 is 10 to 100 nM; at IKZF1 it was over 10000 nM. In addition, the Dmax on IKZF2 was 40 to 60%; at IKZF1, under 20%.

For the compound `CC(C)Nc1n[nH]c2c(CN3CCCC3)cc(-c3ccc4c(c3)CN(C35CC(C3)C(=O)NC5=O)C4=O)nc12` [Example 298, 1-(5-(3-(isopropylamino)-7-(pyrrolidin-1-ylmethyl)-1H-pyrazolo[4,3-b]pyridin-5-yl)-1-oxoisoindolin-2-yl)-3-azabicyclo[3.1.1]heptane-2,4-dione], at IKZF2, the DC50 is under 1 nM and the Dmax lay within 20 to 40%. In addition, at IKZF1, the DC50 was over 10000 nM and the Dmax was under 20%.

In the case of `O=C1CCC(N2Cc3cc(-c4cc(CN5CCCC5)c5nccc(NC6CC6)c5n4)ccc3C2=O)C(=O)N1` (stereo not drawn) [Example 244, 3-(5-(8-(cyclopropylamino)-4-(pyrrolidin-1-ylmethyl)-1,5-naphthyridin-2-yl)-1-oxoisoindolin-2-yl) piperidine-2,6-dione], the figures for the DC50 at IKZF2 and at IKZF1 were 10 to 100 nM and over 10000 nM, respectively. The Dmax on IKZF2 was 40 to 60%; at IKZF1, under 20%.

As for `Cc1nc2c(CN3CCCC3)cc(-c3ccc4c(c3)CN(C3CCC(=O)NC3=O)C4=O)nc2n1C1COC1` (stereo not drawn) [Example 258, 3-(5-(2-methyl-3-(oxetan-3-yl)-7-(pyrrolidin-1-ylmethyl)-3H-imidazo[4,5-b]pyridin-5-yl)-1-oxoisoindolin-2-yl) piperidine-2,6-dione], on IKZF2, the DC50 fell in the range of 10 to 100 nM and the Dmax lay in the range of 60 to 80%. In addition, on IKZF1, the DC50 was over 10000 nM and the Dmax was under 20%.

Consider `O=C1CCC(N2Cc3cc(-c4cc(CN5CC(O)C5)c5ccn(C6CC6)c5n4)ccc3C2=O)C(=O)N1` (stereo not drawn) [Example 135, 3-(5-(1-cyclopropyl-4-((3-hydroxyazetidin-1-yl)methyl)-1H-pyrrolo[2,3-b]pyridin-6-yl)-1-oxoisoindolin-2-yl) piperidine-2,6-dione], for which the DC50 is 1 to 10 nM at IKZF2 and over 10000 nM on IKZF1. The values for the Dmax at IKZF2 and on IKZF1 were over 80% and under 20%, respectively.

As to `CC(=O)N1CC(n2ccc3c(CN4CCCC4)cc(-c4ccc5c(c4)CN(C4CCC(=O)NC4=O)C5=O)nc32)C1` (stereo not drawn) [Example 256, 3-(5-(1-(1-acetylazetidin-3-yl)-4-(pyrrolidin-1-ylmethyl)-1H-pyrrolo[2,3-b]pyridin-6-yl)-1-oxoisoindolin-2-yl) piperidine-2,6-dione], at IKZF2, the DC50 lay within 10 to 100 nM and the Dmax is over 80%. For the same compound, on IKZF1, the DC50 is over 10000 nM and the Dmax was under 20%.

With `O=C1CC[C@H](N2Cc3cc(-c4cc(CN5CCCC5)c5ccn(-c6ncco6)c5n4)ccc3C2=O)C(=O)N1` [Example 267, (S)-3-(5-(1-(oxazol-2-yl)-4-(pyrrolidin-1-ylmethyl)-1H-pyrrolo[2,3-b]pyridin-6-yl)-1-oxoisoindolin-2-yl) piperidine-2,6-dione], the DC50 is 1 to 10 nM on IKZF2 and over 10000 nM at IKZF1. In addition, the Dmax at IKZF2 is 60 to 80%; at IKZF1 it was under 20%.

In the case of `O=C1CCC(N2Cc3cc(-c4cc(CN5CCCC5)c5ccn(C6COC6)c5n4)c(Cl)cc3C2=O)C(=O)N1` (stereo not drawn) [Example 273, 3-(6-chloro-5-(1-(oxetan-3-yl)-4-(pyrrolidin-1-ylmethyl)-1H-pyrrolo[2,3-b]pyridin-6-yl)-1-oxoisoindolin-2-yl) piperidine-2,6-dione], on IKZF2, the DC50 is over 10000 nM and the Dmax is under 20%. Also, on IKZF1, the DC50 was over 10000 nM and the Dmax was under 20%.

Take `O=C1CCC(N2Cc3cc(-c4cc(CN5CCCC5)c5nccc(N6CCC6)c5n4)ccc3C2=O)C(=O)N1` (stereo not drawn) [Example 243, 3-(5-(8-(azetidin-1-yl)-4-(pyrrolidin-1-ylmethyl)-1,5-naphthyridin-2-yl)-1-oxoisoindolin-2-yl) piperidine-2,6-dione]: at IKZF2, the DC50 was 10 to 100 nM and the Dmax was in the range of 60 to 80%. At IKZF1, the DC50 lay within 100 to 1000 nM and the Dmax was 20 to 40%.

For `COCCOc1ccnc2c(CN3CCCC3)cc(-c3ccc4c(c3)CN(C3CCC(=O)NC3=O)C4=O)nc12` (stereo not drawn) [Example 278, 3-(5-(8-(2-methoxyethoxy)-4-(pyrrolidin-1-ylmethyl)-1,5-naphthyridin-2-yl)-1-oxoisoindolin-2-yl) piperidine-2,6-dione], at IKZF2, the DC50 is over 10000 nM and the Dmax was under 20%. Besides, on IKZF1, the DC50 was over 10000 nM and the Dmax was under 20%.

On to `O=C1CCC(N2Cc3cc(-c4cc(CN5CCCC5C(F)F)c5ccn(C6COC6)c5n4)ccc3C2=O)C(=O)N1` (stereo not drawn) [Example 252, 3-(5-(4-((2-(difluoromethyl)pyrrolidin-1-yl)methyl)-1-(oxetan-3-yl)-1H-pyrrolo[2,3-b]pyridin-6-yl)-1-oxoisoindolin-2-yl) piperidine-2,6-dione], for which, on IKZF2, the DC50 was in the range of 10 to 100 nM and the Dmax fell in the range of 40 to 60%. In addition, at IKZF1, the DC50 is over 10000 nM and the Dmax is under 20%.

As to `CNc1[nH]nc2c(CN3CCCC3)cc(-c3ccc4c(c3F)CN(C3CCC(=O)NC3=O)C4=O)nc12` (stereo not drawn) [Example 296, 3-(4-fluoro-5-(3-(methylamino)-7-(pyrrolidin-1-ylmethyl)-1H-pyrazolo[4,3-b]pyridin-5-yl)-1-oxoisoindolin-2-yl) piperidine-2,6-dione], on IKZF2, the DC50 was under 1 nM and the Dmax was over 80%. Moreover, on IKZF1, the DC50 lay in the range of 1 to 10 nM and the Dmax was in the range of 60 to 80%.
